According to paper PMC5390312, “Genetic visualization of protein interactions harnessing liquid phase transitions” (Scientific Reports, 2017):

Target: T1, X-linked inhibitor of apoptosis protein (XIAP) (Homo sapiens, UniProt P98170)
T1 construct: BIR3 domain (XIAP-AG fusion); with Smac N-terminal region (SmacNT-PB1), displaced
Test: Fluoppi high-content assay in HEK293 cells, Smac/XIAP dissociation
Assay type: cell-based

T1 sequence (P98170 241-356 limits assumed): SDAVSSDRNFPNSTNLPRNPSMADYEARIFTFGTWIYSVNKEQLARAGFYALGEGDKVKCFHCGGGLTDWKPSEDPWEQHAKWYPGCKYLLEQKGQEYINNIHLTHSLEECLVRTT
T1 sequence (Q9NR28 56-239 partner): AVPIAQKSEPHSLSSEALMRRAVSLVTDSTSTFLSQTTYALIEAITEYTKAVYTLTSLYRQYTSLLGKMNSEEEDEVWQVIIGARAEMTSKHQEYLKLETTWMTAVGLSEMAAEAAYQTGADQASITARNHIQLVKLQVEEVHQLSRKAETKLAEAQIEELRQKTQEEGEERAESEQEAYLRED

- IC50: 9.2 ± 1.2 µM
Compound: CN[C@@H](C)C(=O)N[C@H]1CN(C(=O)CC(C)C)CC[C@H]2CC[C@@H](C(=O)NC(c3ccccc3)c3ccccc3)N2C1=O [AT-406]
